Measurements published in PubChem BioAssay AID272 (DTP/NCI, 2004).
Where “and” joins values, the source holds several entries; their conditions need not be identical. Identical values can stand only once. Records with an inconclusive call do not appear.

Tested on: Lewis lung carcinoma i.m., BDF1 mice, T/C %
Assay: NCI In Vivo Anticancer Drug Screen. Data for tumor model Lewis Lung Carcinoma (intramuscular) in B6D2F1 (BDF1) mice
In short: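 Compound given to mice with transplantable tumours; survival or tumour size compared against the vehicle control group, reported as T divided by C.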

CC1CCC(NC(=O)N(CCCl)N=O)CC1 (stereo not drawn)
T/C (endpoint: mean tumor weight, dose: 3.12 mg/kg/injection, schedule: Q01DX011 (ip), vehicle: saline, higher = larger tumour): 83 % of control
T/C (endpoint: mean tumor weight, dose: 3.12 mg/kg/injection, schedule: Q06HX008 (ip), vehicle: saline, higher = larger tumour): 80 % of control
T/C (endpoint: mean tumor weight, dose: 6.25 mg/kg/injection, schedule: Q01DX011 (ip), vehicle: saline, higher = larger tumour): 63 % of control
T/C (endpoint: mean tumor weight, dose: 6.25 mg/kg/injection, schedule: Q06HX004 (ip), vehicle: saline, higher = larger tumour): 41 % of control
T/C (endpoint: mean tumor weight, dose: 6.25 mg/kg/injection, schedule: Q06HX008 (ip), vehicle: saline, higher = larger tumour): 93 % of control
T/C (endpoint: mean tumor weight, dose: 8.4 mg/kg/injection, schedule: Q01DX001 (sc), vehicle: Klucel (hydroxypropylcellulose) (HPC), higher = larger tumour): 111 % of control
T/C (endpoint: mean tumor weight, dose: 12.5 mg/kg/injection, schedule: Q01DX001 (ip), vehicle: saline, higher = larger tumour): 76 % of control
T/C (endpoint: mean tumor weight, dose: 12.5 mg/kg/injection, schedule: Q06HX008 (ip), vehicle: saline, higher = larger tumour): 11 % of control
T/C (endpoint: mean tumor weight, dose: 12.5 mg/kg/injection, schedule: Q08DX002 (ip), vehicle: saline, higher = larger tumour): 99 % of control
T/C (endpoint: mean tumor weight, dose: 14.0 mg/kg/injection, schedule: Q01DX001 (sc), vehicle: Klucel (hydroxypropylcellulose) (HPC), higher = larger tumour): 56 % of control
T/C (endpoint: mean tumor weight, dose: 23.0 mg/kg/injection, schedule: Q01DX001 (sc), vehicle: Klucel (hydroxypropylcellulose) (HPC), higher = larger tumour): 35 % of control
T/C (endpoint: mean tumor weight, dose: 25.0 mg/kg/injection, schedule: Q01DX001 (ip), vehicle: saline, higher = larger tumour): 38 % of control
T/C (endpoint: mean tumor weight, dose: 25.0 mg/kg/injection, schedule: Q08DX002 (ip), vehicle: saline, higher = larger tumour): 30 % of control
T/C (endpoint: mean tumor weight, dose: 39.0 mg/kg/injection, schedule: Q01DX001 (sc), vehicle: Klucel (hydroxypropylcellulose) (HPC), higher = larger tumour): 21 % of control
T/C (endpoint: mean tumor weight, dose: 50.0 mg/kg/injection, schedule: Q01DX001 (ip), vehicle: saline, higher = larger tumour): 12 % of control
T/C (endpoint: mean tumor weight, dose: 50.0 mg/kg/injection, schedule: Q08DX002 (ip), vehicle: saline, higher = larger tumour): 8 % of control
T/C (endpoint: median survival time, dose: 1.0 mg/kg/injection, schedule: Q01DX009 (ip), vehicle: saline + alcohol, higher = longer survival): 112 % of control
T/C (endpoint: median survival time, dose: 2.5 mg/kg/injection, schedule: Q01DX015 (ip), vehicle: saline, higher = longer survival): 111 % of control
T/C (endpoint: median survival time, dose: 3.12 mg/kg/injection, schedule: Q01DX017 (ip), vehicle: saline, higher = longer survival): 100 % of control
T/C (endpoint: median survival time, dose: 3.12 mg/kg/injection, schedule: Q06HX012 (ip), vehicle: saline, higher = longer survival): 97 % of control
T/C (endpoint: median survival time, dose: 4.0 mg/kg/injection, schedule: Q01DX009 (ip), vehicle: saline + alcohol, higher = longer survival): 104 % of control and 118 % of control
T/C (endpoint: median survival time, dose: 4.0 mg/kg/injection, schedule: Q01DX011 (ip), vehicle: saline with Tween-80, higher = longer survival): 100 % of control and 114 % of control
T/C (endpoint: median survival time, dose: 5.0 mg/kg/injection, schedule: Q01DX015 (ip), vehicle: saline, higher = longer survival): 97 % of control and 107 % of control
T/C (endpoint: median survival time, dose: 6.25 mg/kg/injection, schedule: Q06HX004 (ip), vehicle: saline, higher = longer survival): 106 % of control
T/C (endpoint: median survival time, dose: 6.3 mg/kg/injection, schedule: Q01DX015 (ip), vehicle: saline, higher = longer survival): 95 % of control
T/C (endpoint: median survival time, dose: 7.5 mg/kg/injection, schedule: Q07DX003 (ip), vehicle: saline, higher = longer survival): 90 % of control
T/C (endpoint: median survival time, dose: 7.9 mg/kg/injection, schedule: Q01DX015 (ip), vehicle: saline, higher = longer survival): 90 % of control
T/C (endpoint: median survival time, dose: 8.0 mg/kg/injection, schedule: Q01DX009 (ip), vehicle: saline + alcohol, higher = longer survival): 156 % of control
T/C (endpoint: median survival time, dose: 8.4 mg/kg/injection, schedule: Q01DX001 (sc), vehicle: Klucel (hydroxypropylcellulose) (HPC), higher = longer survival): 114 % of control
T/C (endpoint: median survival time, dose: 10.0 mg/kg/injection, schedule: Q01DX001 (ip), vehicle: saline + alcohol, higher = longer survival): 116 % of control
T/C (endpoint: median survival time, dose: 12.5 mg/kg/injection, schedule: Q01DX001 (ip), vehicle: saline, higher = longer survival): 104 % of control
T/C (endpoint: median survival time, dose: 12.5 mg/kg/injection, schedule: Q06HX004 (ip), vehicle: saline, higher = longer survival): 158 % of control
T/C (endpoint: median survival time, dose: 12.5 mg/kg/injection, schedule: Q06HX012 (ip), vehicle: saline, higher = longer survival): 93 % of control
T/C (endpoint: median survival time, dose: 12.5 mg/kg/injection, schedule: Q08DX003 (ip), vehicle: saline, higher = longer survival): 108 % of control
T/C (endpoint: median survival time, dose: 14.0 mg/kg/injection, schedule: Q01DX001 (sc), vehicle: Klucel (hydroxypropylcellulose) (HPC), higher = longer survival): 158 % of control
T/C (endpoint: median survival time, dose: 14.0 mg/kg/injection, schedule: Q07DX003 (ip), vehicle: saline, higher = longer survival): 104 % of control
T/C (endpoint: median survival time, dose: 15.0 mg/kg/injection, schedule: Q07DX003 (ip), vehicle: saline, higher = longer survival): 90 % of control
T/C (endpoint: median survival time, dose: 20.0 mg/kg/injection, schedule: Q01DX001 (ip), vehicle: saline + alcohol, higher = longer survival): 92 % of control
T/C (endpoint: median survival time, dose: 23.0 mg/kg/injection, schedule: Q01DX001 (sc), vehicle: Klucel (hydroxypropylcellulose) (HPC), higher = longer survival): 177 % of control
T/C (endpoint: median survival time, dose: 23.0 mg/kg/injection, schedule: Q07DX003 (ip), vehicle: saline, higher = longer survival): 112 % of control
T/C (endpoint: median survival time, dose: 24.0 mg/kg/injection, schedule: Q01DX001 (ip), vehicle: saline, higher = longer survival): 102 % of control
T/C (endpoint: median survival time, dose: 24.0 mg/kg/injection, schedule: Q07DX003 (ip), vehicle: saline, higher = longer survival): 175 % of control
T/C (endpoint: median survival time, dose: 25.0 mg/kg/injection, schedule: Q01DX001 (ip), vehicle: saline, higher = longer survival): 122 % of control
T/C (endpoint: median survival time, dose: 25.0 mg/kg/injection, schedule: Q08DX003 (ip), vehicle: saline, higher = longer survival): 91 % of control
T/C (endpoint: median survival time, dose: 30.0 mg/kg/injection, schedule: Q01DX001 (ip), vehicle: saline + alcohol, higher = longer survival): 92 % of control
T/C (endpoint: median survival time, dose: 30.0 mg/kg/injection, schedule: Q01DX001 (ip), vehicle: saline, higher = longer survival): 197 % of control
T/C (endpoint: median survival time, dose: 30.0 mg/kg/injection, schedule: Q07DX003 (ip), vehicle: saline, higher = longer survival): 197 % of control and 204 % of control
T/C (endpoint: median survival time, dose: 30.0 mg/kg/injection, schedule: Q14DX002 (ip), vehicle: saline, higher = longer survival): 187 % of control
T/C (endpoint: median survival time, dose: 39.0 mg/kg/injection, schedule: Q07DX003 (ip), vehicle: saline, higher = longer survival): 151 % of control
T/C (endpoint: median survival time, dose: 45.0 mg/kg/injection, schedule: Q01DX001 (ip), vehicle: saline, higher = longer survival): 151 % of control
T/C (endpoint: median survival time, dose: 45.0 mg/kg/injection, schedule: Q07DX003 (ip), vehicle: saline, higher = longer survival): 117 % of control
T/C (endpoint: median survival time, dose: 45.0 mg/kg/injection, schedule: Q14DX002 (ip), vehicle: saline, higher = longer survival): 117 % of control
T/C (endpoint: median survival time, dose: 50.0 mg/kg/injection, schedule: Q01DX001 (ip), vehicle: saline, higher = longer survival): 181 % of control
T/C (endpoint: median survival time, dose: 56.0 mg/kg/injection, schedule: Q07DX003 (ip), vehicle: saline, higher = longer survival): 100 % of control

NC(=O)c1cc(N2CC2)c([N+](=O)[O-])cc1[N+](=O)[O-]
T/C (endpoint: mean tumor weight, dose: 10.0 mg/kg/injection, schedule: Q01DX011 (ip), vehicle: saline with Tween-80, higher = larger tumour): 100 % of control
T/C (endpoint: mean tumor weight, dose: 20.0 mg/kg/injection, schedule: Q01DX011 (ip), vehicle: saline with Tween-80, higher = larger tumour): 52 % of control
T/C (endpoint: mean tumor weight, dose: 40.0 mg/kg/injection, schedule: Q01DX011 (ip), vehicle: saline with Tween-80, higher = larger tumour): 5 % of control
T/C (endpoint: median survival time, dose: 10.0 mg/kg/injection, schedule: Q01DX011 (ip), vehicle: saline with Tween-80, higher = longer survival): 94 % of control
T/C (endpoint: median survival time, dose: 20.0 mg/kg/injection, schedule: Q01DX011 (ip), vehicle: saline with Tween-80, higher = longer survival): 116 % of control
T/C (endpoint: median survival time, dose: 40.0 mg/kg/injection, schedule: Q01DX011 (ip), vehicle: saline with Tween-80, higher = longer survival): 88 % of control

CCN(CC)Cc1cc(Nc2c3ccccc3nc3cc(Cl)ccc23)ccc1O
T/C (endpoint: mean tumor weight (est.), dose: 35.0 mg/kg/injection, schedule: Q01DX011 (ip), vehicle: saline, higher = larger tumour): 79 % of control

COc1ccc(C(=O)c2cc(OC)c(OC)c(OC)c2)cc1OC
T/C (endpoint: mean tumor weight (est.), dose: 100.0 mg/kg/injection, schedule: Q01DX011 (ip), vehicle: saline with Tween-80, higher = larger tumour): 34 % of control
T/C (endpoint: mean tumor weight (est.), dose: 200.0 mg/kg/injection, schedule: Q01DX011 (ip), vehicle: saline with Tween-80, higher = larger tumour): 51 % of control
T/C (endpoint: mean tumor weight (est.), dose: 400.0 mg/kg/injection, schedule: Q01DX011 (ip), vehicle: saline with Tween-80, higher = larger tumour): 43 % of control
T/C (endpoint: median survival time, dose: 100.0 mg/kg/injection, schedule: Q01DX011 (ip), vehicle: saline with Tween-80, higher = longer survival): 93 % of control
T/C (endpoint: median survival time, dose: 200.0 mg/kg/injection, schedule: Q01DX011 (ip), vehicle: saline with Tween-80, higher = longer survival): 89 % of control
T/C (endpoint: median survival time, dose: 400.0 mg/kg/injection, schedule: Q01DX011 (ip), vehicle: saline with Tween-80, higher = longer survival): 108 % of control

Nc1nc(N)c2nc(CNc3ccc(C(=O)NC(CCC(=O)O)C(=O)O)cc3)cnc2n1 (stereo not drawn)
T/C (endpoint: median survival time, dose: 4.0 micrograms/kg/injection, schedule: Q01DX011 (ip), vehicle: other, higher = longer survival): 97 % of control
T/C (endpoint: median survival time, dose: 8.0 micrograms/kg/injection, schedule: Q01DX011 (ip), vehicle: other, higher = longer survival): 86 % of control
T/C (endpoint: median survival time, dose: 16.0 micrograms/kg/injection, schedule: Q01DX011 (ip), vehicle: other, higher = longer survival): 100 % of control
T/C (endpoint: median survival time, dose: 32.0 micrograms/kg/injection, schedule: Q01DX011 (ip), vehicle: other, higher = longer survival): 109 % of control
T/C (endpoint: median survival time, dose: 65.0 micrograms/kg/injection, schedule: Q01DX011 (ip), vehicle: other, higher = longer survival): 95 % of control

COc1ccc(C(=O)/C(Br)=C/C(=O)O)cc1
T/C (endpoint: mean tumor weight, dose: 40.0 mg/kg/injection, schedule: Q01DX011 (ip), vehicle: saline, higher = larger tumour): 48 % of control
